According to patent publication EP4778918A1, “RADIOACTIVE POSITRON-EMITTING NUCLIDE CARBON-11 LABELED COMPOUND AND RADIOACTIVE COMPOSITION” (The University of Osaka, priority 2023, dated 2025):

Tests used:
[1] = system: MRL-Pdcd1-/- mice; assay: Administration of VLA4 inhibitor AJM300 to myocarditis model mice (survival, echocardiography); assay type: in vivo; conditions: compared with AJM300(-) group
Description: The AJM300 group (+) was administered with a mixed diet containing 1% of AJM300 from 2 weeks of age until death.
At 28 days of age, 9 mice in the AJM300(-) group and 10 mice in the AJM300(+) group were evaluated for cardiac function by echocardiography and then euthanized to collect heart and blood samples.

[2] = system: autoimmune myocarditis model rats; assay: Anti-VLA-4 neutralizing antibody or AJM300 administration in rat autoimmune myocarditis model (cardiac function); assay type: in vivo, Lewis rats; conditions: 21 days after induction of myocarditis; diet with 1% AJM300, or 5 mg/kg antibody intravenously at 0w, 1w, 2w, 3w; compared with placebo group
Description: Study groups were: placebo group (5 animals), AJM300-administered group (4 animals), and neutralizing antibody-administered group (5 animals) administered with anti-VLA-4-neutralizing antibody. The placebo group was fed a diet mixed with placebo (0.43% METOLOSE + 0.14% Ac-Di-Sol) from 3 days before induction of myocarditis to 3 weeks. The AJM300-administered group was fed a diet mixed with 1% AJM300 from 3 days before induction of myocarditis to 3 weeks. The neutralizing antibody-administered group was intravenously administered with 5 mg/kg of neutralizing antibody at the time of induction of myocarditis (0w), 1 week after induction of myocarditis (1w), 2 weeks after induction of myocarditis (2w), and 3 weeks after induction of myocarditis (3w). Left ventricular contractile performance and heart rate were evaluated 21 days after induction of myocarditis.

[3] = system: PD1-/- mice; assay: Determination of therapeutic effect on myocarditis by PET/CT with [^11C]HCA2969 tracer; assay type: in vivo
Description: Groups of wild-type mice, placebo PD1-/- mice, AJM300-administered PD1-/- mice and anti-VLA-4 neutralizing antibody-administered PD 1-/- mice at 4 weeks of age were prepared. The placebo group was fed a normal diet and the AJM300-administered group was fed a diet containing 1% AJM300 from day 14 to day 28 after the start of rearing. The anti-VLA-4 neutralizing antibody-administered group was fed a normal diet and administered with anti-VLA -4 neutralizing antibody (10 mg/kg) intraperitoneally on days 14 and 21 after the start of rearing. On day 28 after the start of rearing, each mouse was anesthetized with isoflurane (1 to 3% in 2 L of O2) and injected with a [^11C]HCA2969 tracer (1 to 10 MBq: 10 µg of unlabeled HCA2969 containing 10 MBq of PET tracer) via a tail vein. Twenty minutes after the injection, PET/CT imaging was performed for 10 minutes.

[4] = Stability of the produced [^11C]HCA2969 over time (quality test, radiochemical purity); assay type: physicochemical; conditions: immediately after synthesis and even 90 minutes after synthesis; final formulation, approximately 10% ethanol in physiological saline
Excerpt: [^11C]HCA2969 was produced according to the following procedure. A synthesis scheme is shown in FIG. 1. • (1) [^11C]CO2 was produced via nuclear reaction of ^14N(p,α)^11C using N2 gas as a target using a medical cyclotron (CYPRIS HM-18, Sumitomo Heavy Industries, Ltd.). The obtained [^11C]CO2 was introduced into a vapor phase method methyl iodide synthesizer (C-GPC-100, Sumitomo Heavy Industries, Ltd.) to synthesize […] ([^11C]CH3OTf) having high reaction activity. • (2) [^11C]CH3OTf was introduced into a reaction vessel containing 500 µL of a solution of 1 mg/mL HCA2969 precursor (QD) in acetone and 3 µL of 1 mol/L NaOH and subjected to bubbling. • (3) 100 µL of 0.1 mol/L NaOH was added to the solution obtained after the bubbling in the above step (2) and a deprotection reaction was performed at room temperature for 10 minutes. • (4) 1 mL of water for injection was added to the solution obtained after the deprotection in the above step (3), the mixture was mixed thoroughly, and the whole volume was injected into HPLC to fractionate and collect [^11C]HCA2969. A representative HPLC chromatogram is shown in FIG. 2. • (5) The fractionated and collected solution was diluted with water for injection, and the whole volume was introduced into a solid-phase extraction column (HLB column) to retain [^11C]HCA2969. […]

[5] = target: T1, VLA-4 (Mus musculus, UniProt P09055+Q00651); assay: [^11C]HCA2969 binding to VLA-4 in mouse monocytes (saturation, Scatchard analysis); conditions: 2 × 10^6 spleen monocytes
T1 construct: monocytes collected from a spleen of a mouse; endogenous in cells; host or cells: primary monocytes from mouse spleen
T1 sequence (Q00651 41-1039): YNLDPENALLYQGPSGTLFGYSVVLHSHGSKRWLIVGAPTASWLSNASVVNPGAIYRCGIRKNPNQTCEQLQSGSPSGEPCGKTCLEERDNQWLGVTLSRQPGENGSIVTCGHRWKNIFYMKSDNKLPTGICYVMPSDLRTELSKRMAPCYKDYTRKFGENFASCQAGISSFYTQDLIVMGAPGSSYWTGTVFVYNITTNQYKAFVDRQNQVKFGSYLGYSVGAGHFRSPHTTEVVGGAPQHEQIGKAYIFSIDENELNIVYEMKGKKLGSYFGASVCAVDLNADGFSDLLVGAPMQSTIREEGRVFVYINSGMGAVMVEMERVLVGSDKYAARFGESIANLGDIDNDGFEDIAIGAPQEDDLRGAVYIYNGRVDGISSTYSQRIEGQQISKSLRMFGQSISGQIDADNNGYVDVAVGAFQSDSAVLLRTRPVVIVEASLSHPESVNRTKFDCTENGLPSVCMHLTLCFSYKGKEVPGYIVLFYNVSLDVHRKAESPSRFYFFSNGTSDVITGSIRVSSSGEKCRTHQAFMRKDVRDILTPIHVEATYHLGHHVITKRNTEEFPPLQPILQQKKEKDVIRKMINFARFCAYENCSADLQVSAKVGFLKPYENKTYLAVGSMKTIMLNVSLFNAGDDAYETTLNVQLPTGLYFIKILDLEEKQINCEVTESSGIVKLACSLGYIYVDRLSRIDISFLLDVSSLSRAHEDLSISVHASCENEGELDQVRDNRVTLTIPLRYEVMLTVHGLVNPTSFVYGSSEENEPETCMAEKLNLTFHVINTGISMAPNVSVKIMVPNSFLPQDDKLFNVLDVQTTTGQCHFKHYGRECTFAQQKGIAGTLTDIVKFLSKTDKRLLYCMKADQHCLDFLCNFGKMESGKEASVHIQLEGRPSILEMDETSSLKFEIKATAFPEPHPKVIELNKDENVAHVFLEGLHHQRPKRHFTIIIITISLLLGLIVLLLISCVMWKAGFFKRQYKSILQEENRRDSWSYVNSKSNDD
T1 sequence (P09055 21-798): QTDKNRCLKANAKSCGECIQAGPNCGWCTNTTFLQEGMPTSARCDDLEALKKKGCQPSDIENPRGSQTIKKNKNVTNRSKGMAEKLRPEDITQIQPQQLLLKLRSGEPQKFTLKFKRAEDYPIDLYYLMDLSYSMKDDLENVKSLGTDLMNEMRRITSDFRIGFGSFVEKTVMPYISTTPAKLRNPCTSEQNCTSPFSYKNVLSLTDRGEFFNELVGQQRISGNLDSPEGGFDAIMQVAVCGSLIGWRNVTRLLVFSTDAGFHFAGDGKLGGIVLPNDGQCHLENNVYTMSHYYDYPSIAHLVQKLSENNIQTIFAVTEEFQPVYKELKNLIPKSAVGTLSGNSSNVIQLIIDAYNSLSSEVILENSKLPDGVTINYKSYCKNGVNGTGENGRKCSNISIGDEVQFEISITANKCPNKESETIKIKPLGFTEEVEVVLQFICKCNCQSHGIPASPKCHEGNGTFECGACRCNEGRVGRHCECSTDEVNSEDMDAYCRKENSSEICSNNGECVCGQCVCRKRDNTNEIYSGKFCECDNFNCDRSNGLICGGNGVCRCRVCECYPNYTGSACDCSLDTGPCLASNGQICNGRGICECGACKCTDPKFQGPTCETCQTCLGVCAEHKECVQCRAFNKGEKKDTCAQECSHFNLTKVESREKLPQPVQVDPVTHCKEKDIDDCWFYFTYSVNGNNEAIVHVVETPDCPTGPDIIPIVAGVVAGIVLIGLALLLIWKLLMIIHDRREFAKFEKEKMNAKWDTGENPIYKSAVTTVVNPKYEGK
Description: Monocytes collected from a mouse were used to evaluate the binding of a [^11C]HCA2969 to VLA-4.
2 × 10^6 monocytes collected from a spleen of a mouse and a [^11C]HCA2969 synthesized in the above section 1 were added to buffer (10mM Tris pH 7.5, 0.1% BSA, 150 mM NaCl, 2 mM MnCl2, 2 mM D-glucose) at concentrations of 0.025 nM, 0.1 nM, 0.4 nM, 1.6 nM, 6.4 nM and 25.6 nM, respectively, and mixed. After mixing, the cells were incubated at room temperature for 20 minutes and washed 2 times with buffer (10mM Tris pH 7.5, 0.1% BSA, 150 mM NaCl, 2 mM MnCl2, 2 mM D-glucose). Radiation dose was measured for the washed cells using a scintillation counter.

[6] = system: MRL-Pdcd1-/- and wild-type mice; assay: Detection of myocarditis by PET/CT imaging with [^11C]HCA2969 tracer in mice; assay type: in vivo; conditions: about 1 to 10 MBq intravenously, days 25 to 26
Description: In the MRL-Pdcd1-/- and wild-type mice prepared in the above section 5, a [^11C]HCA2969 tracer (about 1 to 10 MBq) was administered intravenously via a tail vein under inhalation anesthesia with isoflurane on days 25 to 26, followed by PET/CT imaging.

[7] = system: autoimmune myocarditis model rat; assay: Detection of autoimmune myocarditis by PET/CT imaging with [^11C]HCA2969 tracer in rats; assay type: in vivo, Lewis rats; conditions: autoimmune myocarditis model rats at 3 weeks of induction; about 1 to 10 MBq intravenously
Description: An autoimmune myocarditis model rat was prepared by administering 10 mg/ml of Pig Cardiac Myosin (purified in-house from pig heart) and Adjuvant (CFA 10 mg/ml; Chondrex, Inc., 7002) to Lewis rats (male, 8 weeks old). A day of administration of the Pig Cardiac Myosin was set as Day 0. In this model, myocarditis reached its climax on Day 21. […] On Day 12, infiltration of inflammatory cells into cardiac muscle tissue began, and, on Day 19, more intense infiltration of the inflammatory cells was observed. On Day 25, destruction of the cardiac muscle tissue due to inflammation was observed.
In autoimmune myocarditis model rat prepared in the above section 2, a [^11C]HCA2969 tracer at about 1 to 10 MBq was administered intravenously via a tail vein under inhalation anesthesia with isoflurane at 3 weeks of induction, which is the climax of myocarditis, followed by PET/CT imaging.

[8] = system: EAE mice; conditions: mouse, in vivo
[9] = system: EAE model mice; conditions: mouse, in vivo
[10] = echocardiography at 28 days of age, diet containing 1% of AJM300, t-test p=0.0231

| Structure (SMILES) | heart rate [1, 10] | left ventricular contractile performance: % Fractional Shortening (%) [1, 10] | Survival period (Kaplan-Meier) ([1]; mixed diet containing 1% of AJM300 from 2 weeks of age, Log-rank test p=0.0022) | cardiac function (left ventricular contractile performance and heart rate) [2] | accumulation of the [^11C]HCA2969 tracer in the cardiac region ([3]; treated PD1-/- mice compared to the placebo group, diet containing 1% AJM300 day 14 to day 28, or antibody 10 mg/kg intraperitoneally on days 14 and 21) | radiochemical purity [4] [%] | Bmax [5] [Bq] | Kd ([5]; 0.025 nM to 25.6 nM, room temperature, 20 minutes, read-out: equilibrium dissociation constant Kd) [nM] | tracer accumulation in hearts ([6]; two MRL-Pdcd1-/- mice) | tracer accumulation in hearts ([6]; two wild-type mice) | tracer accumulation in hearts [7] | accumulation of the [^11C]HCA2969 tracer in the cardiac region ([3]; PD1-/- mouse, untreated, day 28, imaging twenty minutes after the injection) | SUV mean [8] | SUV median [8] | accumulation of the tracer signal in the brain [9] | accumulation of the tracer signal in the spinal cord [9] |
| --- | --- | --- | --- | --- | --- | --- | --- | --- | --- | --- | --- | --- | --- | --- | --- | --- |
| COC(=O)[C@H](Cc1ccc(-n2c(=O)c3cc(N(C)C)ccc3n(C)c2=O)cc1)NC(=O)c1c(Cl)cccc1Cl [AJM300, carotegrast methyl] | significantly ameliorated bradycardia | significantly improved | significantly prolonged | no effect | lower |  |  |  |  |  |  |  |  |  |  |  |
| CN(C)c1ccc2c(c1)c(=O)n(-c1ccc(CC(NC(=O)c3c(Cl)cccc3Cl)C(=O)O)cc1)c(=O)n2[11CH3] (stereo not shown) [[^11C]HCA2969] |  |  |  |  |  | ≥ 90 | 81.85 | 0.16 | observed | no tracer accumulation | no tracer accumulation | observed | high accumulation | high accumulation | increasing trend | significant increase |
